Results on 32 compounds are retold here after patent publication US10669242B2 (priority 2016, dated 2020).

Each structure is given as a SMILES string.

This assay concerns the target T1, recombinant glucosyltransferase domain of C. difficile Toxin B/TcdB (Clostridioides difficile, UniProt P18177).
T1 construct: 6-His (C); purchased R&D Systems 6246-GT
Kind of assay: biochemical.

T1 sequence (P18177 1-543): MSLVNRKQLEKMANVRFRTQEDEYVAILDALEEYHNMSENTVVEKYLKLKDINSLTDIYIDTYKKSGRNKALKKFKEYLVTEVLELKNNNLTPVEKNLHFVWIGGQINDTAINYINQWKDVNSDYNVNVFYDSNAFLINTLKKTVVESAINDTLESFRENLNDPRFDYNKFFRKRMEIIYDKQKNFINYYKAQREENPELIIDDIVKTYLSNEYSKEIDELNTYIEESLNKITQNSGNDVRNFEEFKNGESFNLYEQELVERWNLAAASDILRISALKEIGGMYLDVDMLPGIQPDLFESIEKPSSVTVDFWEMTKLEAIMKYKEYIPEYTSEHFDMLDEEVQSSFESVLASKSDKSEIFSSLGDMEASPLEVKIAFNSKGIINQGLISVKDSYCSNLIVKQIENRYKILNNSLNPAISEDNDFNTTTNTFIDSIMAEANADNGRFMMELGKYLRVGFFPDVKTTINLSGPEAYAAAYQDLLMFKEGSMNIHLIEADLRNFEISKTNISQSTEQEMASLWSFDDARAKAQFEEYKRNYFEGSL

On to `Cc1cnc(NC(=O)c2ccc(CN3C(=O)c4ccc(Cl)cc4NC(=O)[C@H]3C)cc2)cn1` [Example 4bi, (R)-4-((8-chloro-3-methyl-2,5-dioxo-2,3-dihydro-1H-benzo[e][1,4]diazepin-4(5H)-yl)methyl)-N-(5-methylpyrazin-2-yl)benzamide], for which the IC50 lay within 100 to 999 nM.

Consider `C[C@@H]1C(=O)Nc2cc(Cl)ccc2C(=O)N1Cc1ccc(C(=O)Nc2ccc(N3CCN(C)CC3)cn2)cc1` [Example 4bh, (R)-4-((8-chloro-3-methyl-2,5-dioxo-2,3-dihydro-1H-benzo[e][1,4]diazepin-4(5H)-yl)methyl)-N-(5-(4-methylpiperazin-1-yl)pyridin-2-yl)benzamide], for which the IC50 was 100 to 999 nM. With `O=C1Nc2cc(Cl)ccc2C(=O)N(Cc2ccc(C(O)c3ccccn3)cc2)[C@@H]1Cc1ccccn1` (stereo partly drawn) [Example 51a, (3R)-8-Chloro-4-(4-(hydroxy(pyridin-2-yl)methyl)benzyl)-3-(pyridin-2-ylmethyl)-3,4-dihydro-1H-benzo[e][1,4]diazepine-2,5-dione], the IC50 was in the range of 1000 to 10000 nM.

As for `COc1cc(CN2C(=O)c3ccc(Cl)cc3NC(=O)[C@H]2Cc2ccccn2)ccc1C(=O)Nc1ccc(F)cn1` [Example 5aq, (R)-4-((8-chloro-2,5-dioxo-3-(pyridin-2-ylmethyl)-2,3-dihydro-1H-benzo[e][1,4]diazepin-4(5H)-yl)methyl)-N-(5-fluoropyridin-2-yl)-2-methoxybenzamide], the IC50 is below 100 nM. With `N#Cc1ccc(NC(=O)c2ccc(CN3C(=O)c4ccc(Cl)cc4NC(=O)[C@H]3Cc3ccccn3)cc2Cl)nc1` [Example 5au, (R)-2-chloro-4-((8-chloro-2,5-dioxo-3-(pyridin-2-ylmethyl)-2,3-dihydro-1H-benzo[e][1,4]diazepin-4(5H)-yl)methyl)-N-(5-cyanopyridin-2-yl)benzamide] the figure was below 100 nM; with `Cc1cnc(NC(=O)[C@H]2CC[C@H](CN3C(=O)c4ccc(Cl)cc4NC(=O)[C@H]3Cc3ccccn3)CC2)nc1` [Example 5ad, (1R,4r)-4-(((R)-8-chloro-2,5-dioxo-3-(pyridin-2-ylmethyl)-2,3-dihydro-1H-benzo[e][1,4]diazepin-4(5H)-yl)methyl)-N-(5-methylpyrimidin-2-yl)cyclohexanecarboxamide], below 100 nM. Turning to `COc1cnc(NC(=O)c2ccc(S(=O)(=O)N3Cc4ccc(Cl)cc4NC(=O)[C@H]3Cc3ccccn3)cc2)nc1` [Example 19h, (R)-4-((8-chloro-2-oxo-3-(pyridin-2-ylmethyl)-2,3-dihydro-1H-benzo[e][1,4]diazepin-4(5H)-yl)sulfonyl)-N-(5-methoxypyrimidin-2-yl)benzamide], the IC50 is below 100 nM. Regarding `O=C1Nc2cc(Cl)ccc2C(=O)N(Cc2cccc(NS(=O)(=O)c3ccccn3)c2)[C@@H]1Cc1ccccn1` [Example 30c], the IC50 fell in the range of 1000 to 10000 nM.

With `O=C(O)c1ccc(CN2C(=O)c3ccc(Cl)cc3NC(=O)C2Cc2cnccn2)cc1` (centres unmarked) [Example 1l], the IC50 lay within 1000 to 10000 nM. Turning to `CN(C)CCC(=O)Nc1cc(CN2C(=O)c3ccc(Cl)cc3NC(=O)[C@H]2Cc2ccccn2)ccc1C(=O)O` [Example 22k], the IC50 lay in the range of 100 to 999 nM. As for `COCC(=O)Nc1ccc(CN2C(=O)c3ccc(Cl)cc3NC(=O)[C@H]2Cc2ccccn2)cc1` [Example 30b], the IC50 fell in the range of 10000 to 35000 nM. As to `COc1cc(CN2C(=O)c3ccc(Cl)cc3NC(=O)[C@H]2Cc2ccccn2)ccc1C(=O)O` [Example 7d, (R)-4-((8-chloro-2,5-dioxo-3-(pyridin-2-ylmethyl)-2,3-dihydro-1H-benzo[e][1,4]diazepin-4(5H)-yl)methyl)-2-methoxybenzoic acid], the IC50 lay within 100 to 999 nM. Take `O=C(Nc1ccccn1)c1ccc(CN2C(=O)c3ccncc3NC(=O)[C@H]2Cc2cccnc2)cc1` [Example 35n]: the IC50 lay within 100 to 999 nM. With `Cc1ccc(C[C@@H]2C(=O)Nc3cc(Cl)ccc3C(=O)N2Cc2ccc(C(=O)Nc3ccccn3)cc2)cc1` [Example 4co, (R)-4-((8-chloro-3-(4-methylbenzyl)-2,5-dioxo-2,3-dihydro-1H-benzo[e][1,4]diazepin-4(5H)-yl)methyl)-N-(pyridin-2-yl)benzamide], the IC50 lay within 100 to 999 nM. Turning to `O=C1Nc2cc(Cl)ccc2C(=O)N(CC2CCN(C(=O)Nc3ccccn3)CC2)[C@@H]1Cc1ccccn1` [Example 42a, (R)-4-((8-Chloro-2,5-dioxo-3-(pyridin-2-ylmethyl)-2,3-dihydro-1H-benzo[e][1,4]diazepin-4(5H)-yl)methyl)-N-(pyridin-2-yl)piperidine-1-carboxamide], the IC50 is 1000 to 10000 nM.

In the case of `CC(C)(C)OC(=O)N1CCN(c2ccc(NC(=O)c3ccc(CN4C(=O)c5ccc(Cl)cc5NC(=O)[C@H]4Cc4ccccn4)cc3)nc2)CC1` [Example 4aw, (R)-tert-butyl 4-(6-(4-((8-chloro-2,5-dioxo-3-(pyridin-2-ylmethyl)-2,3-dihydro-1H-benzo[e][1,4]diazepin-4(5H)-yl)methyl)benzamido)pyridin-3-yl)piperazine-1-carboxylate], the IC50 was 100 to 999 nM. Turning to `O=C(Nc1ccccn1)c1ccc(CN2C(=O)c3ccc(Cl)cc3NC(=O)[C@H]2Cc2ccccc2F)cc1` [Example 4an, (R)-4-((8-chloro-3-(2-fluorobenzyl)-2,5-dioxo-2,3-dihydro-1H-benzo[e][1,4]diazepin-4(5H)-yl)methyl)-N-(pyridin-2-yl)benzamide], the IC50 is below 100 nM.

In the case of `COc1cnc(NC(=O)c2ccc(CN3C(=O)c4ccc(Cl)cc4NC(=O)[C@H]3Cc3ccccn3)s2)nc1` [Example 5r, (R)-5-((8-chloro-2,5-dioxo-3-(pyridin-2-ylmethyl)-2,3-dihydro-1H-benzo[e][1,4]diazepin-4(5H)-yl)methyl)-N-(5-methoxypyrimidin-2-yl)thiophene-2-carboxamide], the IC50 was 100 to 999 nM.

On to `O=C(Nc1ccccn1)c1ccc(CN2C(=O)c3ccc(Cl)cc3NC(=O)[C@H]2Cc2ccc(F)cc2)cc1` [Example 4i, (R)-4-((8-chloro-3-(4-fluorobenzyl)-2,5-dioxo-2,3-dihydro-1H-benzo[e][1,4]diazepin-4(5H)-yl)methyl)-N-(pyridin-2-yl)benzamide], for which the IC50 is below 100 nM. For `O=C(Nc1nncs1)c1ccc(CN2C(=O)c3ccc(Cl)cc3NC(=O)[C@H]2Cc2ccccn2)cc1` [Example 4bp, (R)-4-((8-chloro-2,5-dioxo-3-(pyridin-2-ylmethyl)-2,3-dihydro-1H-benzo[e][1,4]diazepin-4(5H)-yl)methyl)-N-(1,3,4-thiadiazol-2-yl)benzamide], the IC50 was 100 to 999 nM. For `Cc1cc(C(=O)Nc2ccc(CN3C(=O)c4ccc(Cl)cc4NC(=O)[C@H]3Cc3ccccn3)cc2)no1` [Example 27g], the IC50 lay in the range of 1000 to 10000 nM. In the case of `O=C(O)c1ccc(CN2C(=O)c3ccc(Cl)cc3NC(=O)[C@H]2Cc2ccccn2)cc1-c1cccc(F)c1` [Example 8k, (R)-5-((8-chloro-2,5-dioxo-3-(pyridin-2-ylmethyl)-2,3-dihydro-1H-benzo[e][1,4]diazepin-4(5H)-yl)methyl)-3′-fluoro-[1,1′-biphenyl]-2-carboxylic acid], the IC50 lay in the range of 100 to 999 nM. In the case of `COc1ccc(C[C@@H]2C(=O)Nc3cc(Cl)ccc3C(=O)N2Cc2ccc(C(=O)Nc3ccccn3)cc2)cc1` [Example 35d] it was 100 to 999 nM; in that of `Cn1nccc1-c1cc(CN2C(=O)c3ccc(Cl)cc3NC(=O)[C@H]2Cc2ccccn2)ccc1C(=O)O` [Example 8s, (R)-4-((8-chloro-2,5-dioxo-3-(pyridin-2-ylmethyl)-2,3-dihydro-1H-benzo[e][1,4]diazepin-4(5H)-yl)methyl)-2-(1-methyl-1H-pyrazol-5-yl)benzoic acid], 1000 to 10000 nM.

Regarding `C[C@@H]1C(=O)Nc2cc(Cl)ccc2C(=O)N1Cc1ccc(C(=O)Nc2ccc(N3CCOCC3)cn2)cc1` [Example 4bf, (R)-4-((8-chloro-3-methyl-2,5-dioxo-2,3-dihydro-1H-benzo[e][1,4]diazepin-4(5H)-yl)methyl)-N-(5-morpholinopyridin-2-yl)benzamide], the IC50 fell in the range of 100 to 999 nM. As for `Cc1cc(CN2C(=O)c3ccc(Cl)cc3NC(=O)[C@H]2Cc2ccccn2)cc(C)c1N` [Example 24a, (R)-4-(4-Amino-3,5-dimethylbenzyl)-8-chloro-3-(pyridin-2-ylmethyl)-3,4-dihydro-1H-benzo[e][1,4]diazepine-2,5-dione], the IC50 is 10000 to 35000 nM. As for `O=C(O)c1ccc(CN2C(=O)c3ccc(Cl)cc3NC(=O)[C@H]2Cc2ccncc2)cc1` [Example 1c], the IC50 was in the range of 10000 to 35000 nM. Take `CS(=O)(=O)NC(=O)c1ccc(CN2C(=O)c3ccc(Cl)cc3NC(=O)[C@H]2Cc2cccnc2)cc1` [Example 15b, (R)-4-((8-chloro-2,5-dioxo-3-(pyridin-3-ylmethyl)-2,3-dihydro-1H-benzo[e][1,4]diazepin-4(5H)-yl)methyl)-N-(methylsulfonyl)benzamide]: the IC50 was in the range of 1000 to 10000 nM. As for `COc1cnc(NC(=O)c2ccc(CN3C(=O)c4ccc(Cl)cc4NC(=O)[C@H]3Cc3ccccn3)cc2)cn1` [Example 5v, (R)-4-((8-chloro-2,5-dioxo-3-(pyridin-2-ylmethyl)-2,3-dihydro-1H-benzo[e][1,4]diazepin-4(5H)-yl)methyl)-N-(5-methoxypyrazin-2-yl)benzamide], the IC50 was below 100 nM. In the case of `O=C1Nc2cc(Cl)ccc2C(=O)N(Cc2ccc(C(=O)n3ccc4cccnc43)c(Cl)c2)[C@@H]1Cc1ccccn1` [Example 4ab, (R)-8-chloro-4-(3-chloro-4-(1H-pyrrolo[2,3-b]pyridine-1-carbonyl)benzyl)-3-(pyridin-2-ylmethyl)-3,4-dihydro-1H-benzo[e][1,4]diazepine-2,5-dione], the IC50 is below 100 nM. Consider `O=C(Nc1cc(Cl)ccn1)c1ccc(CN2C(=O)c3ccc(Cl)cc3NC(=O)[C@H]2Cc2cccnc2)cc1` [Example 4r, (R)-4-((8-chloro-2,5-dioxo-3-(pyridin-3-ylmethyl)-2,3-dihydro-1H-benzo[e][1,4]diazepin-4(5H)-yl)methyl)-N-(4-chloropyridin-2-yl)benzamide], for which the IC50 was below 100 nM. Consider `Cc1ccc(NC(=O)c2ccc(S(=O)(=O)N3Cc4ccc(Cl)cc4NC(=O)[C@H]3Cc3ccccn3)cc2)nc1` [Example 19a, (R)-4-((8-Chloro-2-oxo-3-(pyridin-2-ylmethyl)-2,3-dihydro-1H-benzo[e][1,4]diazepin-4(5H)-yl)sulfonyl)-N-(5-methylpyridin-2-yl)benzamide], for which the IC50 was in the range of 100 to 999 nM.
